Type in all cases: in vivo
Assay [1] deals with STZ mice (mouse pancreatic islet β-cell injury model). The assay is described as follows: Blood glucose in mouse pancreatic islet β-cell injury model (STZ), limonoid compound, glibenclamide or combination. As to conditions: STZ ICR mice, single administration 0.02 g/kg per day by gavage, two weeks, 1 h after last administration; model group 29.5 ± 4.6, normal 7.5 ± 0.6. The text has this:
The limonoid compound was selected from the group consisting of limonin, isolimonic acid, limonin glycoside, and isolimonic acid glycoside, and glibenclamide single administration group, limonin single administration group, isolimonic acid single administration group, limonin glycoside singe administration group, isolimonic acid glycoside singe administration group, and respective combination thereof with glibenclamide administration groups were set. Conditions of experimental feeding: ICR mice (20±2 g), aged 6 weeks, purchased from Zhejiang Academy of Medical Sciences, and subjected to experimental feeding after 7 days of preliminary feeding. It should be noted that the conditions for raising the mice were as follows: the temperature was 23±1° C., the humidity was 55±10%, the lights were turned on between 7 am and 7 pm (the lights were turned off at other time), and the mice were allowed to freely take in water and feed. The experimental feed was mouse growth-stable feed (GB […]), and the daily feeding and management of the animals were under the responsibility of the animal security department, which provided the animals with sufficient diet and fresh drinking water daily. […] The data were expressed as mean and standard deviation. The data before and after were analyzed by t-test, and P<0.05 was considered statistically significant.

In assay [2] the test system is db/db mice. The assay is described as follows: Blood glucose and leptin in mouse type II diabetes model, limonoid compound, gliclazide or combination. As to conditions: single administration 0.04 g/kg per day by gavage, two weeks, 1 h after last administration, model group 23.9 ± 4.2, normal 6.0 ± 0.7. The text has this: In the present example, db/db mice (line name BKS.Cg-Dock7^m+/+Lepr^db/Nju) were used to perform hypoglycemic efficacy evaluation test of animals (blood glucose level and leptin). The limonoid compound was selected from obacunone, isoobacunoic acid and obacunone glycoside, and gliclazide single administration group, obacunone single administration group, isoobacunoic acid single administration group, obacunone glycoside single administered group, and respective combination thereof with gliclazide administration groups were set. Conditions for experimental feeding: as type II diabetes model mice, 6-week-old SPF-grade db/db mice were purchased from the Nanjing Model Biology Institute, and subjected to experimental feeding after 7 days of preliminary feeding. It should be noted that the conditions for raising the mice were as follows: the temperature was 23±1° C., the humidity was 55±10%, the lights were turned on between 7 am and 7 pm (the lights were turned off at other time), and the mice were allowed to freely take in water and feed. […] The data were expressed as mean and standard deviation. The data before and after were analyzed by t-test, and P<0.05 was considered statistically significant.

The subject of assay [3] is STZ mice (type II diabetes with pancreatic islet damage and obesity). The assay is described as follows: Blood glucose in mouse type II diabetes model with pancreatic islet damage and obesity (STZ + high-fat diet), limonoid compound, glimepiride or combination. As to conditions: STZ + high-fat diet ICR mice, single administration 0.5 g/kg per day by gavage, two weeks, 1 h after last administration; model group 29.6 ± 6.0, normal 5.9 ± 0.54. The text has this:
In this example, a mouse model of type II diabetes with pancreatic islet damage and obesity was established by multiple modeling ICR mice with a small dose of streptozotocin (STZ), following with continuous high-fat diets (referring to literature: […] Conditions of experimental feeding: ICR mice (20±2 g), aged 6 weeks, purchased from Zhejiang Academy of Medical Sciences, and subjected to experimental feeding after 7 days of preliminary feeding. It should be noted that the conditions for raising the mice were as follows: the temperature was 23±1° C., the humidity was 55±10%, the lights were turned on between 7 am and 7 pm (the lights were turned off at other time), and the mice were allowed to freely take in water and feed. The experimental feed was mouse growth-stable feed (GB […]), and the daily feeding and management of the animals were under the responsibility of the animal security department, which provided the animals with sufficient diet and fresh drinking water daily. […] The data were expressed as mean and standard deviation. The data before and after were analyzed by t-test, and P<0.05 was considered statistically significant.

The test system of assay [4] is STZ mice (mouse pancreatic islet β-cell injury model). The experiment in a line: Blood glucose in mouse pancreatic islet β-cell injury model (STZ), limonoid compound, glipizide or combination. As to conditions: STZ ICR mice, single administration 0.1 g/kg per day by gavage, two weeks, 1 h after last administration; model group 29.5 ± 4.6, normal 7.5 ± 0.6. The text has this: In this example, a mouse pancreatic islet β-cell injury model was established by modeling ICR mice with streptozotocin (STZ) (Li Nan et al., Protective effect of pine pollen on kidney damage in diabetic nephropathy mice, Science and Technology Review, 2014, 32 (4/5): 95-99), and used to complete the evaluation of hypoglycemic effect in animals (this model could simulate pancreatic islet β-cell damage state of type I and type II diabetics). […]
Gavage doses: the gavage dose was 0.1 g/kg per day for the ichangin group, the gavage dose was 0.1 g/kg per day for the ichangensin group, the gavage dose was 0.1 g/kg per day for the ichangin glycoside group, the gavage dose of glipizide was 0.1 g/kg per day for the glipizide group, ichangin at a dose of 0.05 g/kg and glipizide at a dose of 0.05 g/kg were simultaneously gavaged per day for the ichangin/glipizide combination group, ichangensin at a dose of 0.05 g/kg and glipizide at a dose of 0.05 g/kg were simultaneously gavaged per day for the ichangensin/glipizide combination group, ichangin glycoside at a dose of 0.05 g/kg and glipizide at a dose of 0.05 g/kg were simultaneously gavaged per day for the ichangin glycoside/glipizide combination group, the gavage volume was 10 mL/kg, and the normal group and the model group were administrated with 10 mL/kg of distilled water. […] The data were expressed as mean and standard deviation. […]

For assay [5], the system named is db/db mice. The assay is described as follows: Blood glucose and insulin in mouse type II diabetes model, limonoid compound, gliquidone or combination. As to conditions: single administration 0.2 g/kg per day by gavage, two weeks. The text has this:
In the present embodiment, the limonoid compound was selected from nomilin, deacetylnomilin, nomilin acid, deacetylnomilin acid glycoside, and gliquidone single administration group, nomilin single administration group, deacetylnomilin single administration group, nomilin acid single administered group, deacetylnomilin acid glycoside single administration group, and respective combination thereof with gliquidone administration groups were set.
Conditions for experimental feeding: as type II diabetes model mice, 6-week-old SPF-grade db/db mice were purchased from the Nanjing Model Biology Institute, and subjected to experimental feeding after 7 days of preliminary feeding. It should be noted that the conditions for raising the mice were as follows: the temperature was 23±1° C., the humidity was 55±10%, the lights were turned on between 7 am and 7 pm (the lights were turned off at other time), and the mice were allowed to freely take in water and feed. The experimental feed was mouse growth-stable feed (GB M2118), and the daily feeding and management of the animals were under the responsibility of the animal security department, which provided the animals with sufficient diet and fresh drinking water daily.
Experimental grouping: male db/db mice (20±2 g) were selected, 18 male mice in each group were tested, and drinking bottles were sterilized weekly. […]

Structures are written as SMILES.

For the compound `COc1ccc(Cl)cc1C(=O)NCCc1ccc(S(=O)(=O)NC(=O)NC2CCCCC2)cc1` [Glibenclamide, glibenclamide], the Blood glucose value in assay [1] is listed as 18.3 ± 3.2 mmol/L.
On to `Cc1ccc(S(=O)(=O)NC(=O)NN2CC3CCCC3C2)cc1` (stereo not drawn) [Gliclazide, gliclazide], for which the Blood glucose value in assay [2] stood at 11.5 ± 2.9 mmol/L.
Take `CCC1=C(C)CN(C(=O)NCCc2ccc(S(=O)(=O)NC(=O)N[C@H]3CC[C@H](C)CC3)cc2)C1=O` [Glimepiride, glimepiride]: the Blood glucose value in assay [3] was 10.4 ± 2.1 mmol/L.
For `Cc1cnc(C(=O)NCCc2ccc(S(=O)(=O)NC(=O)NC3CCCCC3)cc2)cn1` [Glipizide, glipizide], the Blood glucose value in assay [4] is given as 14.5 ± 2.3 mmol/L.
For `COc1ccc2c(c1)C(=O)N(CCc1ccc(S(=O)(=O)NC(=O)NC3CCCCC3)cc1)C(=O)C2(C)C` [gliquidone], the Insulin in assay [5] (serum, ELISA, model group 10.56 ± 3.00, normal 1.05 ± 0.39) was 7.82 ± 1.52 pg/mL. Also, the Blood glucose value in assay [5] (1 h after last administration, model group 23.9 ± 4.2, normal 6.0 ± 0.7) was 10.3 ± 2.1 mmol/L.

For the origin of these results see patent publication US20220296615A1, “COMBINATION PRODUCT CONTAINING LIMONOID COMPOUND AND SULFONYLUREA COMPOUND” (ZHEJIANG YANGSHENGTANG INSTITUTE OF NATURAL MEDICATION CO., …, priority 2019, published 2022).
